From ChEMBL document CHEMBL4130611, “Serpulanines A to C, N-Oxidized Tyrosine Derivatives Isolated from the Sri Lankan Fungus Serpula sp.: Structure Elucidation, Synthesis, and Histone Deacetylase Inhibition” (J Nat Prod, 2018) come the findings set out here.

Test [1] has as its target T1, Protein deacetylase HDAC6 (Homo sapiens) (UniProt Q9UBN7).
T1 sequence (whole entry): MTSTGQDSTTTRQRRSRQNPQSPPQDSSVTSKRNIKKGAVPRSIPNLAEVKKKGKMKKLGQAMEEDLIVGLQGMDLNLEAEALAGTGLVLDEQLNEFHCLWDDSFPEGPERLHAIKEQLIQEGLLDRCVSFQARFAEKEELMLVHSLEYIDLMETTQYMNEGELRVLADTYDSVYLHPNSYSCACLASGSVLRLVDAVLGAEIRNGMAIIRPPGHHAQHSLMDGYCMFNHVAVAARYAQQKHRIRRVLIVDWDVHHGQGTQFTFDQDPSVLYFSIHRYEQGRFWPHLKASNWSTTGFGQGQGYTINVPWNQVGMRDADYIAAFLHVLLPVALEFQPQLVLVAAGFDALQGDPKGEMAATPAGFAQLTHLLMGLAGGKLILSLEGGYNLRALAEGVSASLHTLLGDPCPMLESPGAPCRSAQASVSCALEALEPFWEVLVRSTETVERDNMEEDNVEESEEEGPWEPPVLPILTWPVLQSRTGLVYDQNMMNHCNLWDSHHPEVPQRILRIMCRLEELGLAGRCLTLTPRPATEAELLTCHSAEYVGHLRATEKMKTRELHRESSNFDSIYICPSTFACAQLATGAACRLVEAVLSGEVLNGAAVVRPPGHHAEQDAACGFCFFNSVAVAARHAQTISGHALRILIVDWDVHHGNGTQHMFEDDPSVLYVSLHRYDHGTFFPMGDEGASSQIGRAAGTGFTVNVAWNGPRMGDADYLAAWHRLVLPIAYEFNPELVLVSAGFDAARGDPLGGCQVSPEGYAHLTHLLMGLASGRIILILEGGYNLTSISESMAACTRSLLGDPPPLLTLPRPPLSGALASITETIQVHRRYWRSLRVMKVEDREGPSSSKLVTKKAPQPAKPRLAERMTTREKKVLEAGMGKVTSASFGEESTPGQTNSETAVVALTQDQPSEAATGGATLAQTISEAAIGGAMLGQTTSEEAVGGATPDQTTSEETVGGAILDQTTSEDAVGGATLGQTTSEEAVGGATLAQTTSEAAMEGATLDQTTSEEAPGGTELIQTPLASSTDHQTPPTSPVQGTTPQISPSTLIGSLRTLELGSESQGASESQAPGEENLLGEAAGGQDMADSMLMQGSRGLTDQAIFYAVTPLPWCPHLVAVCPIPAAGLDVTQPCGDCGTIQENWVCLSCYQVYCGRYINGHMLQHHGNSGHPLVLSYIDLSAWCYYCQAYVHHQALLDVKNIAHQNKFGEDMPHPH
Briefly: Inhibition of human HDAC6 at 330 uM by HDAC-Glo1/2 luminescent assay relative to control.

The target in test [2] is Histone deacetylase 9 (Homo sapiens) (UniProt Q9UKV0). The test is described as follows: Inhibition of human HDAC9 at 330 uM by HDAC-Glo1/2 luminescent assay.
Chain of Histone deacetylase 9 (Homo sapiens) (Q9UKV0 whole entry): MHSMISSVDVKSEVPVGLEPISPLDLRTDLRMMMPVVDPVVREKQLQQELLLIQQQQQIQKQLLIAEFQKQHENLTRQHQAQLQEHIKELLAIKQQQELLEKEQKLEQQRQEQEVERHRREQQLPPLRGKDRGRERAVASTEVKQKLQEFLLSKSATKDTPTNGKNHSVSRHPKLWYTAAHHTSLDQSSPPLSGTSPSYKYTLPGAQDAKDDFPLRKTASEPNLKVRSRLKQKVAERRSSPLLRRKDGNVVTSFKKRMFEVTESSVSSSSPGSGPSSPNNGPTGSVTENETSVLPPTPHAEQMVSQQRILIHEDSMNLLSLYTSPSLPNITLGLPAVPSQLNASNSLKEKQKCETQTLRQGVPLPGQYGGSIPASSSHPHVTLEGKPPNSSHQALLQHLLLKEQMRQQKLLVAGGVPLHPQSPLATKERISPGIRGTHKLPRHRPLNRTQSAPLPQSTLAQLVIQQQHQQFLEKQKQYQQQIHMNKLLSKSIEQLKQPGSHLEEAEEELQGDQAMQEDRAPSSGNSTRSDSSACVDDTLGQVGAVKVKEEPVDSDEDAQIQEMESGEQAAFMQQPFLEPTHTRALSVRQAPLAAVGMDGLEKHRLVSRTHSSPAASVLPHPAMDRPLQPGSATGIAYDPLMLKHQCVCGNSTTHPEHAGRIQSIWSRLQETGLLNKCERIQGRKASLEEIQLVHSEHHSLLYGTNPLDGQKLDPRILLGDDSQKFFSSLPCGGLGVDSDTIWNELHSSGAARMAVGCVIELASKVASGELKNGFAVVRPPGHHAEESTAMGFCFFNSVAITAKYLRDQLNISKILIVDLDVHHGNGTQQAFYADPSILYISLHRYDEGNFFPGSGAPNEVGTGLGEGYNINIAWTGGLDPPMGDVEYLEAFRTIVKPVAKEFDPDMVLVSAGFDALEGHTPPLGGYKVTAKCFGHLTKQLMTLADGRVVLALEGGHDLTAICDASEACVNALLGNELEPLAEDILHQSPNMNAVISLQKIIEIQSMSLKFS
Test [3] has as its system A9. The test is described as follows: (§1) Inhibition of class 1 HDAC in mouse A9 cells after 30 mins by luminescent assay. The class given is cell-based.
The nature of test [4]: as §1. The class given is cell-based.
Test [5] deals with A9. Briefly: (§2) Inhibition of class 2 HDAC in mouse A9 cells after 30 mins by luminescent assay. The class given is cell-based.
Test [6] in a line: as §2. The class given is cell-based.

Activity calls are given as the source filed them. The rule behind the calls is not given here.

Broadly, the inhibition is the share of the control response that was lost under treatment. As usually defined, the IC50 is the point on the concentration scale where inhibition reaches its midpoint. Low values mean greater potency, high ones weaker potency.

In test [1], `COC(=O)C(Cc1ccc(OCC=C(C)C)cc1)N(O)C(=O)/C(C)=N/O` (stereo unspecified) registered an inhibition of 69%. Further, the inhibition entry in test [2] is “inactive”.

For the compound `CC(C)=CCOc1ccc(C/C(=N\O)C(=O)NO)cc1`, the inhibition result in test [3] and in test [5] was “Dose-dependent effect” in each case. The IC50 in test [4] and in test [6] was 7 µM in each case.
